Calls of active or inactive are those of the source. No cut-off for these calls is given here.
Experiments:
Acinetobacter baumannii = experiment: Antimicrobial activity against Acinetobacter baumannii ATCC 19606 assessed as inhibition of visible bacterial growth incubated for 18 hrs by broth microdilution method; format: functional
Pseudomonas aeruginosa [1] = experiment: Antimicrobial activity against Pseudomonas aeruginosa ATCC 27853 assessed as inhibition of visible bacterial growth incubated for 18 hrs by broth microdilution method; format: functional
Staphylococcus aureus [2] = experiment: Antimicrobial activity against Staphylococcus aureus ATCC 25923 assessed as inhibition of visible bacterial growth incubated for 18 hrs by broth-dilution method; format: functional
Staphylococcus aureus [3] = experiment: Antimicrobial activity against methicillin-drug resistant Staphylococcus aureus ATCC 33591 assessed as concentration required to eliminate 90% bacteria incubated for 18 hrs by broth-microdilution method; format: functional
Staphylococcus aureus [4] = experiment: Antimicrobial activity against methicillin-drug resistant Staphylococcus aureus clinical isolate 74 assessed as concentration required to eliminate 90% bacteria incubated for 18 hrs by broth-microdilution method; format: functional
Staphylococcus aureus [5] = experiment: Antimicrobial activity against methicillin-drug resistant Staphylococcus aureus clinical isolate 936 assessed as concentration required to eliminate 90% bacteria incubated for 18 hrs by broth-microdilution method; format: functional
Escherichia coli = experiment: Antimicrobial activity against multi-drug resistant Escherichia coli clinical isolate 780 assessed as concentration required to eliminate 90% bacteria incubated for 18 hrs by broth-microdilution method; format: functional
Pseudomonas aeruginosa [6] = experiment: Antimicrobial activity against multi-drug resistant Pseudomonas aeruginosa clinical isolate 86 assessed as concentration required to eliminate 90% bacteria incubated for 18 hrs by broth-microdilution method; format: functional
Staphylococcus aureus [7] = experiment: Antibacterial activity against Staphylococcus aureus ATCC 25923 assessed as inhibition of bacterial growth at 2 times of MIC incubated for 18 hrs in presence of <2 microg/ml of trypsin by absorbance based assay; format: functional, organism-based
Staphylococcus aureus [8] = experiment: Antibacterial activity against Staphylococcus aureus ATCC 25923 assessed as inhibition of bacterial growth at 2 times of MIC incubated for 18 hrs in presence of <2 microg/ml of chymotrypsin by absorbance based assay; format: functional, organism-based
Staphylococcus aureus [9] = experiment: Bactericidal activity against Staphylococcus aureus ATCC 25923 at 2 times of MIC incubated for 18 hrs in presence of 20 microg/ml of trypsin by absorbance based assay; format: functional, organism-based
Staphylococcus aureus [10] = experiment: Antibacterial activity against Staphylococcus aureus ATCC 25923 assessed as inhibition of bacterial growth at 2 times of MIC incubated for 18 hrs in presence of 2000 microg/ml of chymotrypsin by absorbance based assay; format: functional, organism-based
Pseudomonas aeruginosa [11] = experiment: Antibacterial activity against Pseudomonas aeruginosa ATCC 27853 assessed as fold change in MIC incubated for 18 hrs in presence of NaCl by Mueller-Hinton broth based assay; format: functional
Staphylococcus aureus [12] = experiment: Antibacterial activity against Staphylococcus aureus ATCC 25923 assessed as fold change in MIC incubated for 18 hrs in presence of NaCl by Mueller-Hinton broth based assay; format: functional
Staphylococcus aureus [13] = experiment: Antibacterial activity against Staphylococcus aureus ATCC 25923 incubated for 18 hrs in presence of ZnCl2 by Mueller-Hinton broth based assay; format: functional, organism-based
Pseudomonas aeruginosa [14] = experiment: Antibacterial activity against Pseudomonas aeruginosa ATCC 27853 incubated for 18 hrs in presence of 10% serum by broth microdilution method; format: functional, organism-based
Staphylococcus aureus [15] = experiment: Antibacterial activity against Staphylococcus aureus ATCC 25923 assessed as fold change in MIC incubated for 18 hrs in presence of 2.5% serum by broth microdilution method; format: functional
Pseudomonas aeruginosa [16] = experiment: Antibiofilm activity in Pseudomonas aeruginosa ATCC 27853 assessed as inhibition of biofilm formation at 1/2 times of MIC incubated for 24 hrs by crystal violet staining based analysis; format: functional, organism-based
Staphylococcus aureus [17] = experiment: Antibiofilm activity in Staphylococcus aureus ATCC 25923 assessed as inhibition of biofilm formation at 1 times of MIC incubated for 24 hrs by crystal violet staining based analysis relative to control; format: functional
Pseudomonas aeruginosa [18] = experiment: Resistance fold, ratio of MIC for Pseudomonas aeruginosa ATCC 27853 measured after 20 passages to MIC for Pseudomonas aeruginosa ATCC 27853 measured immediately; format: functional
Pseudomonas aeruginosa [19] = experiment: Antimicrobial activity against gentamicin-resistant Pseudomonas aeruginosa ATCC 27853 assessed as inhibition of visible bacterial growth incubated for 18 hrs by broth microdilution method; format: functional
Staphylococcus aureus [20] = experiment: Antimicrobial activity against gentamicin-resistant Staphylococcus aureus ATCC 25923 assessed as inhibition of visible bacterial growth incubated for 18 hrs by broth-dilution method; format: functional
Pseudomonas aeruginosa [21] = experiment: Bactericidal activity against Pseudomonas aeruginosa ATCC 27853 assessed as bacterial killing at 1 to 4 times of MIC by time-kill kinetics assay; format: functional, organism-based; conditions: time <= 360.0 min
Staphylococcus aureus [22] = experiment: Bactericidal activity against Staphylococcus aureus ATCC 25923 assessed as bacterial killing at 1 to 4 times of MIC by time-kill kinetics assay; format: functional, organism-based; conditions: time <= 360.0 min
Pseudomonas aeruginosa [23] = experiment: Bactericidal activity against Pseudomonas aeruginosa ATCC 27853 assessed as bacterial killing measured upto 360 mins by time-kill kinetics assay; format: functional, organism-based
Staphylococcus aureus [24] = experiment: Bactericidal activity against Staphylococcus aureus ATCC 25923 assessed as bacterial eradication at 4 times of MIC measured within 30 mins by time-kill kinetics assay; format: functional, organism-based
Cell membrane = experiment: Induction of inner membrane permeabilization in Escherichia coli ML-35 ATCC 43837 assessed as increase in […] measured for 135 mins by ONPG based analysis; format: subcellular
Pseudomonas aeruginosa [25] = experiment: Induction of morphological changes in Pseudomonas aeruginosa ATCC 27853 assessed as cell adhesion at 2 times of MIC incubated for 30 to 120 mins by SEM analysis; format: functional, organism-based; conditions: time 30-120 min
Staphylococcus aureus [26] = experiment: Induction of morphological changes in Staphylococcus aureus ATCC 25923 assessed as blister formation at 2 times of MIC incubated for 30 to 120 mins by SEM analysis; format: functional, organism-based; conditions: time 30-120 min
[27] = Toxicity in male Balb/c mouse assessed as mortality at 80 mg/kg, ip measured after 7 days relative to control; format: organism-based; conditions: in vivo, time 7 day
[28] = Toxicity in male Balb/c mouse assessed as mortality at 100.8 mg/kg, ip measured after 7 days relative to control; format: organism-based; conditions: in vivo, time 7 day
[29] = Toxicity in male Balb/c mouse assessed as lethal dose administered intraperitoneally for 7 days; conditions: in vivo, route ip, time 7 day
Klebsiella pneumoniae [30] = experiment: Antibacterial activity against Klebsiella pneumoniae ATCC 700603 infected in male Balb/c mouse model of pneumonia assessed as decrease in decrease in IL-1beta level in lung at 2.5 to 10 mg/kg, ip administered at 4 and 12 hrs post-infected and measured after 24 hrs by ELISA; format: functional, organism-based; conditions: dose 2.5-10 mg/kg, time 20.0 hrs
Klebsiella pneumoniae [31] = experiment: Antibacterial activity against Klebsiella pneumoniae ATCC 700603 infected in male Balb/c mouse model of pneumonia assessed as decrease in decrease in TNF-alpha level in lung at 2.5 to 10 mg/kg, ip administered at 4 and 12 hrs post-infected and measured after 24 hrs by ELISA; format: functional, organism-based; conditions: dose 2.5-10 mg/kg, time 20.0 hrs
Klebsiella pneumoniae [32] = experiment: Antibacterial activity against Klebsiella pneumoniae ATCC 700603 infected in male Balb/c mouse model of pneumonia assessed as decrease in decrease in IL-6 level in lung at 2.5 to 10 mg/kg, ip administered at 4 and 12 hrs post-infected and measured after 24 hrs by ELISA; format: functional, organism-based; conditions: dose 2.5-10 mg/kg, time 20.0 hrs
Staphylococcus aureus [33] = experiment: Antibacterial activity against methicillin-resistant Staphylococcus aureus ATCC 33591 infected in male Balb/c mouse model of full thickness skin wound assessed as reduction in bacteria in skin wound at 1 mg/ml pre-infected with bacteria for 1 hrs followed by compound administration at 1,12 and 36 hrs post infection and measured after 10 days by photographic analysis; format: functional, organism-based; conditions: time 10.0 day

Substance: H-RRWFRRWRRWFR-NH2
- MIC (Acinetobacter baumannii): 8 µM
- MIC (Pseudomonas aeruginosa [1]): 2 µM
- MIC (Staphylococcus aureus [2]): 2 µM
- EC90 (Staphylococcus aureus [3]): 2260 nM
- EC90 (Staphylococcus aureus [4]): 2430 nM
- EC90 (Staphylococcus aureus [5]): 5220 nM
- EC90 (Escherichia coli): 5080 nM
- EC90 (Pseudomonas aeruginosa [6]): 574 nM
- Activity (Staphylococcus aureus [7]): Active
- Activity (Staphylococcus aureus [8]): Active
- Activity (Staphylococcus aureus [9]): inactive
- Activity (Staphylococcus aureus [10]): Not active; Entire Loss Of Activity Observed
- fold change (FC) (Pseudomonas aeruginosa [11]): 2
- fold change (FC) (Staphylococcus aureus [12]): 2
- Activity (Staphylococcus aureus [13]): Active
- Activity (Pseudomonas aeruginosa [14]): inactive
- fold change (FC) (Staphylococcus aureus [15]): 32
- Activity (Pseudomonas aeruginosa [16]): inactive
- inhibition (INH) (Staphylococcus aureus [17]): ~50%
- fold change (FC) (Pseudomonas aeruginosa [18]): <=2
- MIC (Pseudomonas aeruginosa [19]): 2 µM
- MIC (Staphylococcus aureus [20]): 4 µM
- Activity (Pseudomonas aeruginosa [21]): Time-dependent-effect
- Activity (Staphylococcus aureus [22]): Time-dependent-effect
- Activity (Pseudomonas aeruginosa [23]): Dose-dependent-effect
- Activity (Staphylococcus aureus [24]): Active
- Activity (Cell membrane): Active; Lower Concentration Of Compound Is Sufficient To Disrupt Inner Membrane
- Activity (Pseudomonas aeruginosa [25]): Active
- Activity (Staphylococcus aureus [26]): Active
- mortality at 168 h [27]: 25%
- mortality at 168 h [28]: 75%
- LD50 at 168 h [29]: 89.9 mg/kg
- Activity (Klebsiella pneumoniae [30]): Active
- Activity (Klebsiella pneumoniae [31]): Active
- Activity (Klebsiella pneumoniae [32]): inactive
- Activity (Staphylococcus aureus [33]): Active; Obvious Facilitation Of Wound Healing Not Observed

Source: ChEMBL document CHEMBL6153094, “Rationally designed highly amphipathic antimicrobial peptides demonstrating superior bacterial selectivity relative to the corresponding α-helix peptide” (Eur J Med Chem, 2025)
